This is an account of results in DBAASP.

The structures appear in SMILES notation. Converted amounts (≈) assume the structure as drawn.

The MIC is the lowest concentration found to suppress growth. A low value points to a more susceptible organism.

Test systems include Bacillus megaterium Bm11; Staphylococcus capitis 1; Escherichia coli O157; Listeria monocytogenes; Salmonella typhimurium; Alternaria sp. PHI-44; Botrytis cinerea #8; Penicillium sp. PHI-8; Pyricularia grisea PR-9.
Assay in all cases: ≥ marks a high value that may be exact or a test limit, other limits are often not marked, values filed in µg/mL are converted to µM
The test system of assay [1] is Bacillus subtilis CCT 2576.
Assay [2] deals with Escherichia coli ATCC 25922.
The test system of assay [3] is Pseudomonas aeruginosa ATCC 15422.
For assay [4], the system named is Staphylococcus aureus ATCC 6538.
Assay [5] relates to Candida albicans ATCC 10231.
In assay [6] the test system is Staphylococcus aureus Cowan 1.
Assay [7] has as its system Yersinia pseudotuberculosis YPIII.
In assay [8] the test system is Escherichia coli ATCC 25404.
For assay [9], the system named is Micrococcus luteus ATCC 10420.
The subject of assay [10] is Staphylococcus aureus ATCC 29213.
Assay [11] concerns Staphylococcus aureus ATCC 43300.
Assay [12] relates to Staphylococcus epidermidis ATCC 9709.
Assay [13] relates to Bacillus subtilis KCTC 1918.
Assay [14] relates to Candida albicans CCARM 14001.
The subject of assay [15] is Candida albicans CCARM 14007.
Assay [16] deals with Candida albicans KCTC 7270.
Assay [17] concerns Escherichia coli CCARM 1229.
For assay [18], the system named is Escherichia coli CCARM 1238.
Assay [19] has as its system Escherichia coli KCTC 1682.
Assay [20] deals with Listeria monocytogenes KCTC 3710.
Assay [21] relates to Pseudomonas aeruginosa KCTC 1637.
The subject of assay [22] is Salmonella typhimurium CCARM 8007.
In assay [23] the test system is Salmonella typhimurium CCARM 8009.
Assay [24] deals with Salmonella typhimurium CCARM 8013.
Assay [25] has as its system Salmonella typhimurium KCTC 1926.
Assay [26] deals with Staphylococcus aureus CCARM 3089.
Assay [27] deals with Staphylococcus aureus CCARM 3090.
Assay [28] concerns Staphylococcus aureus CCARM 3108.
For assay [29], the system named is Staphylococcus aureus CCARM 3114.
The subject of assay [30] is Staphylococcus aureus CCARM 3126.
Assay [31] deals with Staphylococcus aureus KCTC 1621.
The subject of assay [32] is Aspergillus nidulans biA1.
Assay [33] concerns Bacillus subtilis CECT 498.
The subject of assay [34] is Escherichia coli DH5alpha.
The subject of assay [35] is Fusarium oxysporum CECT 2866.
Assay [36] concerns Penicillium digitatum PHI-26.
Assay [37] has as its system Penicillium expansum PHI-65.
In assay [38] the test system is Penicillium italicum PHI-1.
For assay [39], the system named is Saccharomyces cerevisiae FY1679.

Turning to `CC[C@H](C)[C@H](N)C(=O)N[C@@H](CC(N)=O)C(=O)N[C@@H](Cc1c[nH]c2ccccc12)C(=O)N[C@@H](CCCCN)C(=O)N[C@@H](CCCCN)C(=O)N[C@@H](CC(C)C)C(=O)N[C@@H](CC(C)C)C(=O)N[C@@H](CC(=O)O)C(=O)N[C@@H](C)C(=O)N[C@@H](C)C(=O)N[C@@H](CCCCN)C(=O)N[C@@H](CCC(N)=O)C(=O)N[C@H](C(=O)N[C@@H](CC(C)C)C(N)=O)[C@@H](C)CC` [INWKKLLDAAKQIL], the minimal inhibitory concentration (MIC) in assay [1] was 2.96 µM (≈ 4.9 µg/mL); in [2], 5.8 µM (≈ 9.59 µg/mL); in assay [3] it was 28.3 µM (≈ 46.8 µg/mL); in assay [4], 7.8 µM (≈ 12.9 µg/mL).
On to `CC[C@H](C)[C@H](NC(=O)CNC(=O)[C@H](CO)NC(=O)[C@H](CC(C)C)NC(=O)[C@@H](NC(=O)[C@H](CCCN=C(N)N)NC(=O)CNC(=O)[C@@H](NC(=O)[C@H](CC(C)C)NC(=O)[C@@H]1CCCN1C(=O)[C@H](CC(C)C)NC(=O)[C@@H](N)Cc1ccccc1)[C@@H](C)CC)C(C)C)C(=O)N[C@@H](C)C(N)=O` [FLPLIGRVLSGIA], for which the MIC in the assay on Bacillus megaterium Bm11 is 20 µM (≈ 27.1 µg/mL); in assay [5], 40 µM (≈ 54.2 µg/mL); in assay [2], greater than 40 µM; in assay [6] it was no less than 40 µM; with Staphylococcus capitis 1 it was no less than 40 µM; in assay [7], no less than 40 µM.
As for `CC(C)C[C@H](NC(=O)[C@H](CC(C)C)NC(=O)[C@H](CCCCN)NC(=O)[C@H](CO)NC(=O)[C@H](CC(C)C)NC(=O)[C@H](C)NC(=O)[C@H](Cc1cnc[nH]1)NC(=O)[C@H](Cc1ccccc1)NC(=O)[C@H](CC(C)C)NC(=O)[C@H](C)NC(=O)CNC(=O)[C@H](CC(C)C)NC(=O)[C@@H](N)Cc1ccccc1)C(=O)O` [FLGALFHALSKLL], the MIC in assay [8] was no less than 64 µM; with Escherichia coli O157, no less than 64 µM; in the assay on Listeria monocytogenes, 8 µM (≈ 11.4 µg/mL); in assay [9], 2 µM (≈ 2.86 µg/mL); against Salmonella typhimurium, no less than 64 µM; in assay [10], 4 µM (≈ 5.72 µg/mL). In addition, the minimal inhibitory concentration (MIC) in [11] and in assay [12] was 4 µM (≈ 5.72 µg/mL) each time.
As for `NCCCC[C@H](NC(=O)[C@H](Cc1c[nH]c2ccccc12)NC(=O)[C@@H](N)CCCCN)C(=O)N[C@@H](Cc1c[nH]c2ccccc12)C(N)=O` [KWKW], the MIC in [13] is no less than 200 µM; in assay [14], no less than 128 µM; in assay [15], no less than 128 µM; in assay [16], no less than 128 µM; in assay [17] it was no less than 200 µM; in assay [18], no less than 200 µM. Further, the MIC in [19] was no less than 200 µM; in assay [20] it was no less than 200 µM; in assay [21] it was no less than 200 µM; in assay [22], no less than 309 µM; in assay [23], no less than 200 µM; in assay [24] it was no less than 200 µM. The MIC in assay [25], in [26], in [27], in assay [28], in assay [29] and in [30] was no less than 200 µM in each case. The same compound registered an MIC in [31] of no less than 200 µM.
Regarding `CSCC[C@H](NC(=O)[C@H](CCCN=C(N)N)NC(=O)[C@H](Cc1c[nH]c2ccccc12)NC(=O)[C@H](CCC(N)=O)NC(=O)[C@H](Cc1c[nH]c2ccccc12)NC(=O)[C@H](CCCN=C(N)N)NC(=O)[C@H](CCCN=C(N)N)NC(=O)[C@H](CS)NC(=O)[C@H](CCCCN)NC(=O)[C@H](Cc1ccccc1)NC(C)=O)C(=O)N[C@@H](CCCCN)C(=O)N[C@@H](CCCCN)C(=O)N[C@@H](CC(C)C)C(=O)NCC(=O)N[C@@H](C)C(N)=O` [FKCRRWQWRMKKLGA], the MIC in the assay with Alternaria sp. PHI-44 came to 16 µM (≈ 32.6 µg/mL); in [32] it was 4 µM (≈ 8.14 µg/mL); in assay [33], 16 µM (≈ 32.6 µg/mL); with Botrytis cinerea #8 it was 16 µM (≈ 32.6 µg/mL); in assay [34], 16 µM (≈ 32.6 µg/mL); in assay [35] it was 8 µM (≈ 16.3 µg/mL). For the same compound, the MIC in [36] is 4 µM (≈ 8.14 µg/mL); in assay [37], 8 µM (≈ 16.3 µg/mL); in assay [38], 4 µM (≈ 8.14 µg/mL); against Penicillium sp. PHI-8, 8 µM (≈ 16.3 µg/mL); in the assay with Pyricularia grisea PR-9 it was no less than 32 µM; in assay [39], no less than 32 µM.
